According to patent US5189169A (priority 1991, dated 1993):
Values joined by “and” are separate entries in the source; they are usually repeats but may differ in a detail not shown here. Equal entries are not always repeated.

What was measured:
Settings in all cases: in vivo
yellow nutsedge [1] = tested on: yellow nutsedge; set-up: species or system Cyperus esculentus
[2] = tested on: three broadleaf weeds (morning glory, mustard, velvetleaf); set-up: species or system Ipomoea purpurea, Brassica kaber, Abutilon theophrasti
[3] = tested on: three grassy weeds (wild oat, watergrass, foxtail); set-up: species or system Avena fatua, Echinochloa crusgalli, Setaria viridis
[4] = tested on: three grassy weeds (wild oat, watergrass, foxtail); set-up: species or system Avena fatua, Echinochloa crusgalli, Setaria viridis; remark: listed apart in the source
yellow nutsedge [5] = tested on: yellow nutsedge; set-up: species or system Cyperus esculentus; remark: listed apart in the source
[6] = tested on: three broadleaf weeds (morning glory, mustard, velvetleaf); set-up: species or system Ipomoea purpurea, Brassica kaber, Abutilon theophrasti; remark: listed apart in the source

Row | SMILES | % Control, Post-emergence, NS (yellow nutsedge [1]) | % Control, Post-emergence, BL avg. [2] | % Control, Pre-emergence, GR avg. [3] [%] | % Control, Post-emergence, GR avg. [4] | % Control, Pre-emergence, NS (yellow nutsedge [5]) [%] | % Control, Pre-emergence, BL avg. [6] [%]
1 | CCCSP(=O)(N(CC)CCC(C)C)N(CC)CCC(C)C [Compound 51] | 0% | 95% and 100% | 0 | 70% and 45% | 0 | 8
2 | CCCCN(c1ccccc1)P(=O)(SCCC)N(CCC)CCC (stereo not drawn) [Compound 24] | 10% and 0% | 80% and 73% | 0 | 30% and 23% | 0 | 33
3 | CCCSP(=O)(N(CCC)CCC)N(C)c1ccc(OC)cc1 (stereo not drawn) [Compound 10] | 10% and 0% | 80% | 0 | 30% and 23% | 9 | 0
4 | CCCSP(=O)(N(CCC)CCC)N(C)c1ccccc1C (stereo not drawn) [Compound 14] | 5% and 0% | 60% and 67% | 30 | 60% and 73% | 0 | 33
5 | CCCSP(=O)(N(CCC)CCC)N(C)c1ccc(Cl)cc1 (stereo not drawn) [Compound 16] | 0% | 43% and 73% | 0 | 33% and 47% | 0 | 0
6 | CCCSP(=O)(N(CCC)CCC)N(C)c1ccc(Br)cc1Br (stereo not drawn) [Compound 37] | 0% | 80% and 83% | 0 | 20% and 10% | 0 | 0
7 | CCCSP(=O)(N(C)CC)N(CCC)CCC (stereo not drawn) [Compound 2] | 20% and 10% | 100% | 33 | 80% and 57% | 0 | 33
8 | CCCSP(=O)(N(CCC)CCC)N(CCC)c1ccccc1C(C)C (stereo not drawn) [Compound 57] | 0% | 70% and 60% | 0 | 20% and 16% | 0 | 0
9 | CCCCN(CC(C)C)P(=O)(SCCC)N(CCCC)CC(C)C [Compound 50] | 0% | 85% and 70% | 0 | 90% and 77% | 0 | 0
10 | CCCSP(=O)(N(CCC)CCC)N(CCC)c1ccc(Cl)cc1C (stereo not drawn) [Compound 61] | 0% | 80% and 76% | 0 | 50% and 38% | 0 | 3
11 | CCCSP(=O)(N(C)c1ccc(F)cc1)N(C)c1ccc(F)cc1 [Compound 45] | 0% and 10% | 90% and 92% | 0 | 50% and 75% | 0 | 0
12 | CCCN(CCC)P(=O)(Sc1ccccc1)N(CCC)CCC [Compound 63] | 0% | 80% and 91% | 0 | 60% and 43% | 0 | 3
13 | CCCCN(CCCC)P(=O)(SCCC)N(CCCC)CCCC [Compound 7, S-n-propyl-tetra(n-butyl) phosphorodiamide] | 10% and 0% | 90% and 100% | 0 | 90% and 93% | 0 | 0
14 | CCCCN(CCCC)P(=O)(SCCC)N(C)c1ccc(OC)cc1 (stereo not drawn) [Compound 11] | 10% and 0% | 60% and 70% | 0 | 30% and 50% | 9 | 0
15 | CCCCSP(=O)(N(CCC)CCC)N(CCC)CCC [Compound 1] | 10% and 5% | 90% and 100% | 2 | 90% and 85% | 0 | 50
16 | CCCCCSP(=O)(N(CCCC)CCCC)N(CCCC)CCCC [Compound 4] | 0% | 50% and 45% | 0 | 70% and 77% | 0 | 0
17 | CCCSP(=O)(N(CCC)CCC)N(C)c1c(F)c(F)cc(F)c1F (stereo not drawn) [Compound 53] | 0% | 100% | 0 | 75% and 43% | 0 | 10
18 | CCCSP(=O)(N(CCC)CCC)N(C)c1ccc(Cl)cc1C (stereo not drawn) [Compound 62] | 0% | 75% and 76% | 0 | 30% and 33% | 0 | 0
19 | CCCSP(=O)(N(CCC)CCC)N(CC)c1ccccc1 (stereo not drawn) [Compound 26] | 0% | 50% | 7 | 20% and 10% | 0 | 33
20 | CCCSP(=O)(N(CCC)CCC)N(CCOC)CCOC (stereo not drawn) [Compound 46] | 0% | 60% and 73% | 0 | 30% and 47% | 0 | 0
21 | CCCSP(=O)(N(CCC)CCC)N(C)c1ccc(OC)cc1 (stereo not drawn) [Compound 36] | 0% | 100% | 0 | 10% | 0 | 0
22 | CCCSP(=O)(N(CCC)CCC)N(C)c1cccc([N+](=O)[O-])c1 (stereo not drawn) [Compound 44] | 0% | 53% | 0 | 10% | 0 | 0
23 | CCCSP(=O)(N(CCC)CCC)N(C)c1ccc(Cl)cc1Cl (stereo not drawn) [Compound 38] | 0% | 100% | 0 | 40% | 0 | 0
24 | CCCN(CCC)P(=O)(Sc1ccc(Cl)cc1)N(CCC)CCC [Compound 6] | 0% | 80% and 93% | 0 | 70% and 53% | 0 | 0
25 | CCCSP(=O)(N(CCC)CCC)N(C)c1ccc(OC)c(OC)c1 (stereo not drawn) [Compound 42] | 0% | 50% and 83% | 0 | 20% and 23% | 0 | 0
26 | CCCSP(=O)(N(CCC)CCC)N(CCC)c1ccccc1 (stereo not drawn) [Compound 25] | 0% | 50% and 67% | 0 | 50% and 67% | 0 | 33
27 | CCCSP(=O)(N(CCC)CCC)N(C)c1ccc(Cl)c(Cl)c1 (stereo not drawn) [Compound 20] | 5% and 0% | 50% and 67% | 0 | 20% and 13% | 0 | 0
28 | CCCSP(=O)(N(CCC)CCC)N(C)c1ccc(Cl)cc1Cl (stereo not drawn) [Compound 22] | 10% and 0% | 60% | 0 | 50% and 53% | 0 | 0
29 | CCCSP(=O)(N(CCC)CCC)N(C)c1cccnc1 (stereo not drawn) [Compound 40] | 0% | 70% | 0 | 10% | 0 | 0
30 | CCCN(CCC)P(=O)(Sc1ccccc1C)N(CCC)CCC [Compound 5] | 0% | 40% and 33% | 0 | 40% and 27% | 0 | 0
